Assay results reported in patent US20100239563A1 (priority 2001, published 2010).

Key:
[1] = human, in vivo; cited from earlier work
[2] = tested on: influenza A virus strain WSN-HK
[3] = tested on: influenza B virus strain Massachusetts/6/93
[4] = tested on: influenza B viruses/Massachusetts/6/92 (B/Mass)

Row | SMILES | MTD [1] [mg/m^2/dx3] | reduction of the number of newly formed infectious virus particles [2] | cytotoxic effect on the cells (MDCK cells) | reduction of the number of newly formed infectious virus particles [3] | titer of infectious virus particles over infection sequences [4]
1 | CN1CC[C@H](c2c(O)cc(O)c3c(=O)cc(-c4ccccc4Cl)oc23)[C@H](O)C1 [flavopiridol] | 50 |  |  |  | 
2 | N#CC(=C(N)Sc1ccccc1N)C(C#N)=C(N)Sc1ccccc1N [U0126, 1,4-diamino-2,3-dicyano-1,4-bis(2-aminophenylthio)butadiene] |  | approx. 80% | neither solvent nor inhibitor have a significant cytotoxic effect | approx. 90% | significant reduction of the influenza virus particles
